Measured values published in patent US10851102B2, “Imidazole and triazole containing bicyclic compounds as JAK inhibitors” (THERAVANCE BIOPHARMA R&D IP, LLC, priority 2019, dated 2020).

Legend:
Caco-2 cell monolayers = test: Caco-2 permeation assay; type: in vitro ADME, human; conditions: 5 μM, A to B, + Verapamil 25 μM, 120 minutes
Excerpt: Assay 5: Caco-2 Permeation Assay

[1] = system: IL-2 stimulated pSTAT5 in Tall-1 T cells (JAK3); test: Cellular JAK3 potency assay: inhibition of IL-2 stimulated pSTAT5 in Tall-1 T cells; type: cell-based; conditions: IL-2 300 ng/ml, pSTAT5 AlphaLisa, Tall-1 human T cell line; read-out: Tall-1 (pIC50) (converted)
Description: Assay 2: Cellular JAK3 Potency Assay: Inhibition of IL-2 Stimulated pSTAT5 in Tall-1 T Cells
The potency of test compounds for inhibition of interleukin-2 (IL-2) stimulated STATS phosphorylation was measured in the Tall-1 human T cell line (DSMZ) using AlphaLisa. Because IL-2 signals through JAK3, this assay provides a measure of JAK3 cellular potency.
(§1) Phosphorylated STATS was measured via the AlphaLISA SureFire Ultra pSTAT5 (Tyr694/699) kit (PerkinElmer).
Human T cells from the Tall-1 cell line were cultured in a 37° C., 5% CO2 humidified incubator in RPMI (Life Technologies) supplemented with 15% Heat Inactivated Fetal Bovine Serum (FBS, Life Technologies), 2 mM Glutamax (Life Technologies), 25 mM HEPES (Life Technologies) and 1× Pen/Strep (Life Technologies). Compounds were serially diluted in DMSO and dispensed acoustically to empty wells. Assay media (phenol red-free DMEM (Life Technologies) supplemented with 10% FBS (ATCC)) was dispensed (4 μL/well) and plates shaken at 900 rpm for 10 mins. Cells were seeded at 45,000 cells/well in assay media (4 μL/well), and incubated at 37° C., 5% CO2 for 1 hour, followed by the addition of IL-2 (R&D Systems; final concentration 300 ng/ml) in pre-warmed assay media ([…]) for 30 minutes. After cytokine stimulation, cells were lysed with 6 ul of 3× AlphaLisa Lysis Buffer (PerkinElmer) containing 1× PhosStop and Complete tablets (Roche). The lysate was shaken at 900 rpm for 10 minutes at room temperature (RT). Phosphorylated STATS was measured via the pSTAT5 AlphaLisa kit (PerkinElmer). Freshly prepared acceptor bead mixture was dispensed onto lysate (5 μL) under green filtered <100 lux light. Plates were shaken at 900 rpm for 2 mins, briefly spun down, and incubated for 2 hrs at RT in the dark. Donor beads were dispensed (5 μL) under green filtered <100 lux light. Plates were shaken at 900 rpm for 2 minutes, briefly spun down, and incubated overnight at RT in the dark. Luminescence was measured with excitation at 689 nm and emission at 570 nm using an EnVision plate reader (PerkinElmer) under green filtered <100 lux light.
(§2) To determine the inhibitory potency of test compounds in response to IL-2, the average emission intensity of beads bound to pSTAT5 was measured in a human T cell line. IC50 values were determined from analysis of the inhibition curves of signal intensity versus compound concentration. Data are expressed as pIC50 (negative decadic logarithm IC50) values (mean±standard deviation).

Tyk2 = Tyk2 (Homo sapiens (Human), UniProt P29597); test: Biochemical JAK and Tyk2 kinase assays (LanthaScreen): Tyk2; conditions: 1 h pre-incubation, ATP at Km; pIC50 converted to pKi by Cheng-Prusoff
Chain of Tyk2 (P29597 whole entry): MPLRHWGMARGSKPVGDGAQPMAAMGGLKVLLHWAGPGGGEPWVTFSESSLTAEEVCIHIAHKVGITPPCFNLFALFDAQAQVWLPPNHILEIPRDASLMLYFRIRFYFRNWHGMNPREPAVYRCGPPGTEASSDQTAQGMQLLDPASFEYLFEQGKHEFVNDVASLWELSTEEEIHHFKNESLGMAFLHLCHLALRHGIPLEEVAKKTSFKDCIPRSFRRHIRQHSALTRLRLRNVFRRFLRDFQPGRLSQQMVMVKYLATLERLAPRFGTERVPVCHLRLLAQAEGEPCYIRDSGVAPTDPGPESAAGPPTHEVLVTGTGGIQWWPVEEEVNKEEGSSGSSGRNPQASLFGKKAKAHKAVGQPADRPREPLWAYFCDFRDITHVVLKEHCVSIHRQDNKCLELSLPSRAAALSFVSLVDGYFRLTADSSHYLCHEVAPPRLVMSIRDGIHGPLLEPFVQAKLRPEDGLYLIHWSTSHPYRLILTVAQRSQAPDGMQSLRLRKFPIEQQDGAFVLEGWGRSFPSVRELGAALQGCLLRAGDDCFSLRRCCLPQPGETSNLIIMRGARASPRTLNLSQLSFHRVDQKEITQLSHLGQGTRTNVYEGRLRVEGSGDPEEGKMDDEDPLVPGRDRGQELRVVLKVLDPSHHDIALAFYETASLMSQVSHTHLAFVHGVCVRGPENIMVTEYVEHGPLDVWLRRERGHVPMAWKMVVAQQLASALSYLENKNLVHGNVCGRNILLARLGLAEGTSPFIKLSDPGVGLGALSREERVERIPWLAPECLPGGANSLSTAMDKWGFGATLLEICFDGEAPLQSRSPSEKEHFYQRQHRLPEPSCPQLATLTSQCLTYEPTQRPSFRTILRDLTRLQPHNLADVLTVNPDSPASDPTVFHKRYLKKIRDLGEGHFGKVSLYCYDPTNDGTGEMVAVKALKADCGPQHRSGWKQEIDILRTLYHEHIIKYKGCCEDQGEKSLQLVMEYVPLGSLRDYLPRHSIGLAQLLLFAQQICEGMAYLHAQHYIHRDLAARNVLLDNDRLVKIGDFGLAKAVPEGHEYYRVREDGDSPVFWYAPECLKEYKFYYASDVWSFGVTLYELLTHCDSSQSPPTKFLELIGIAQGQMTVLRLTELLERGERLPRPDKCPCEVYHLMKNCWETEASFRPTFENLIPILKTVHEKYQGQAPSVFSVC
Description: (§3) Assay 1: Biochemical JAK and Tyk2 Kinase Assays
(§4) A panel of four LanthaScreen JAK biochemical assays (JAK1, 2, 3 and Tyk2) were carried in a common kinase reaction buffer (50 mM HEPES, pH 7.5, 0.01% Brij-35, 10 mM MgCl2, and 1 mM EGTA). Recombinant GST-tagged JAK enzymes and a GFP-tagged STAT1 peptide substrate were obtained from Life Technologies.
(§5) Serially or discretely diluted compounds were pre-incubated with each of the four JAK enzymes and the substrate in white 384-well microplates (Corning) at ambient temperature for 1 h. ATP was subsequently added to initiate the kinase reactions in 10 μL total volume, with 1% DMSO. […] Kinase reactions were allowed to proceed for 1 hour at ambient temperature before a 10 μL preparation of EDTA (10 mM final concentration) and Tb-anti-pSTAT1 (pTyr701) antibody (Life Technologies, 2 nM final concentration) in TR-FRET dilution buffer (Life Technologies) was added. The plates were allowed to incubate at ambient temperature for 1 h before being read on the EnVision reader (Perkin Elmer). Emission ratio signals (520 nm/495 nm) were recorded and utilized to calculate the percent inhibition values based on DMSO and background controls.
(§6) For dose-response analysis, percent inhibition data were plotted vs. compound concentrations, and IC50 values were determined from a 4-parameter robust fit model with the Prism software (GraphPad Software). Results were expressed as pIC50 (negative logarithm of IC50) and subsequently converted to pKi (negative logarithm of dissociation constant, Ki) using the Cheng-Prusoff equation.

[2] = system: IL-2 stimulated pSTAT5 in CD4+ T cells isolated from murine splenocytes (JAK3); test: Inhibition of IL-2 stimulated pSTAT5 in CD4+ T cells isolated from murine splenocytes; type: cell-based; conditions: Mus musculus, IL-2 7 ng/ml, read-out: pIC50, inhibition of IL-2 stimulated pSTAT5 (converted)
Description: Assay 3: Inhibition of IL-2 Stimulated pSTAT5 in CD4+ T Cells Isolated from Murine Splenocytes
The potency of test compounds for inhibition of interleukin-2 (IL-2) stimulated STATS phosphorylation was measured in the CD4+ T cells isolated from murine splenocytes using AlphaLisa. Because IL-2 signals through JAK3, this assay provides a measure of JAK3 cellular potency in mouse.
as §1
CD4+ T cells were isolated from murine splenocytes via negative selection on a magnetic column (Miltnyi Biotec) and re-suspended in assay media (phenol red-free DMEM (Life Technologies) supplemented with 10% FBS (ATCC)). Cells were seeded at 50,000 cells/well in assay media (2 μL/well). Compounds were serially diluted in DMSO and diluted to 2× final concentration in assay media. Compound was added (4 μl/well) and the cells incubated at 37° C., 5% CO2 for 1 hour, followed by the addition of IL-2 (R&D Systems; final concentration 7 ng/ml) in pre-warmed assay media (2 μL) for 30 minutes. After cytokine stimulation, cells were lysed with 2 μl of 5× AlphaLisa Lysis Buffer (PerkinElmer). The lysate was shaken at 900 rpm for 10 minutes at room temperature (RT). Phosphorylated STATS was measured via the pSTAT5 AlphaLisa kit (PerkinElmer). Freshly prepared acceptor bead mixture was dispensed onto lysate (5 ul) under green filtered <100 lux light. Plates were shaken at 900 rpm for 2 mins, briefly spun down, and incubated for 2 hrs at RT in the dark. Donor beads were dispensed (5 μl) under green filtered <100 lux light. Plates were shaken at 900 rpm for 2 mins, briefly spun down, and incubated overnight at RT in the dark. Luminescence was measured with excitation at 689 nm and emission at 570 nm using an EnVision plate reader (PerkinElmer) under green filtered <100 lux light.
as §2, with “pSTATS” for “pSTAT5”, “primary CD4+” for “a human”, “cells isolated from murine splenocytes.” for “cell line.”, “vs” for “versus”

JAK3 = JAK3 (Homo sapiens (Human), UniProt P52333); test: Biochemical JAK and Tyk2 kinase assays (LanthaScreen): JAK3; conditions: for Ki / JAK 3 (pKi): 1 h pre-incubation, ATP at Km, pIC50 converted to pKi by Cheng-Prusoff; for Ki: read-out: JAK 3 (pKi) (converted); for JAK3 (pKi)-JAK1 (pKi): difference of pKi values, selectivity JAK3 over JAK1
Chain of JAK3 (P52333 whole entry): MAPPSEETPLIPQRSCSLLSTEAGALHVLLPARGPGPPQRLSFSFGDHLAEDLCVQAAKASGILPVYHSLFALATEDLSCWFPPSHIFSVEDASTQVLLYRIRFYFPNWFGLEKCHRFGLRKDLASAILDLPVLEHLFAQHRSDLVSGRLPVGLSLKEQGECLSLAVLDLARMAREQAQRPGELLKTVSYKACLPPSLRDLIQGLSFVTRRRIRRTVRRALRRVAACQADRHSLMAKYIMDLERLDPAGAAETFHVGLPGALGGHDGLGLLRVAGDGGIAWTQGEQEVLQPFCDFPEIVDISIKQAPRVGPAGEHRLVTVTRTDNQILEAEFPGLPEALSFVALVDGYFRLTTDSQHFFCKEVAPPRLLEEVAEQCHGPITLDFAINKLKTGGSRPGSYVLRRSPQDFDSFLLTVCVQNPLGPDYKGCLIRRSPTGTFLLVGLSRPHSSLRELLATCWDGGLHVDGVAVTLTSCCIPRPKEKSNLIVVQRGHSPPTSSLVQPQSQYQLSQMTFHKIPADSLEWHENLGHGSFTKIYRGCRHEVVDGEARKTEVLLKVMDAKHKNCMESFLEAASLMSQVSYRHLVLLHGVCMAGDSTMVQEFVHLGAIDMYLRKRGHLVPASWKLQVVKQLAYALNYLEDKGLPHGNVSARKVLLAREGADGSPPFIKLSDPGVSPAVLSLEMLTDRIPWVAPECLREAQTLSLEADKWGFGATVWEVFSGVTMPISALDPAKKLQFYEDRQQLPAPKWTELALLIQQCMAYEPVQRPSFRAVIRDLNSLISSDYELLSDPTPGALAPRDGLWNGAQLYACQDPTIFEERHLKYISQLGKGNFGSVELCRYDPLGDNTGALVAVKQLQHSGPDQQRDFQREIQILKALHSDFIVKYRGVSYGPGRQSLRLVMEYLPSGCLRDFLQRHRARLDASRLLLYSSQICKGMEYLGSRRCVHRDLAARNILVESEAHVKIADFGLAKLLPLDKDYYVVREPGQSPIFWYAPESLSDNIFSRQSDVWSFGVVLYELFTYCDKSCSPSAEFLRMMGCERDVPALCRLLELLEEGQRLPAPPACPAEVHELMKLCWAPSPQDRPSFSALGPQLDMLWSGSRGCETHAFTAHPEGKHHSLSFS
Description: as §3, §4, §5, §6

JAK1 = JAK1 (Homo sapiens (Human), UniProt P23458); test: Biochemical JAK and Tyk2 kinase assays (LanthaScreen): JAK1; conditions: 1 h pre-incubation, ATP at Km; pIC50 converted to pKi by Cheng-Prusoff
Chain of JAK1 (P23458 whole entry): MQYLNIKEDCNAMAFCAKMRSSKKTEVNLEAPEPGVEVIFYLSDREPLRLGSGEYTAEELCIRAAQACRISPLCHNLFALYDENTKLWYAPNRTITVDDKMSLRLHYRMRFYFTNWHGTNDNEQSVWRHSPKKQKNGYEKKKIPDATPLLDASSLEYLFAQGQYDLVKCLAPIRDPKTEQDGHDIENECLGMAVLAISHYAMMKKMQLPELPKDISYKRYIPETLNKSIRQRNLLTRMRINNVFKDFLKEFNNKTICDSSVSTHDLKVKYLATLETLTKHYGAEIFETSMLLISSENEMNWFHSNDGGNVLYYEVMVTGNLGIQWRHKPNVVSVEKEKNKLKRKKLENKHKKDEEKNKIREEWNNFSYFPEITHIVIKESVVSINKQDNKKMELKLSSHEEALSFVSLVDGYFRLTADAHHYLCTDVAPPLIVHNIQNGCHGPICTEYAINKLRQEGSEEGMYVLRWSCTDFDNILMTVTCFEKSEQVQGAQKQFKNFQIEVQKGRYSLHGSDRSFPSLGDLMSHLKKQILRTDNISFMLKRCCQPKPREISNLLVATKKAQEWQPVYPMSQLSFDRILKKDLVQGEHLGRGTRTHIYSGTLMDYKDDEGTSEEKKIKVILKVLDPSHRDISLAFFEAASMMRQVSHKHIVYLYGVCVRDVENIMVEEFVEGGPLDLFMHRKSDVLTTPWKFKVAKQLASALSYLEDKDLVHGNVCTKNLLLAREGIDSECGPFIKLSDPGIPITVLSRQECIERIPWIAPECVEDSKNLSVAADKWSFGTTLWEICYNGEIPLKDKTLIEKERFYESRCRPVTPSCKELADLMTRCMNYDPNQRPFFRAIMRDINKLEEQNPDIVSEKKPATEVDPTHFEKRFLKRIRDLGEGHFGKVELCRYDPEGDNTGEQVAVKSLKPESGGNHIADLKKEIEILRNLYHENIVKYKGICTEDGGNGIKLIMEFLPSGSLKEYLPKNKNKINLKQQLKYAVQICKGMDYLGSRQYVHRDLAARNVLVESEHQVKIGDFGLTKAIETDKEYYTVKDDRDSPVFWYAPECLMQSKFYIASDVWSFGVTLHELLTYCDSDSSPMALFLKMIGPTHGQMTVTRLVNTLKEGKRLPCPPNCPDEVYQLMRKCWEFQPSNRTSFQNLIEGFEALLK
Description: as §3, §4, §5, §6

JAK2 = JAK2 (Homo sapiens (Human), UniProt O60674); test: Biochemical JAK and Tyk2 kinase assays (LanthaScreen): JAK2; conditions: 1 h pre-incubation, ATP at Km, pIC50 converted to pKi by Cheng-Prusoff
Chain of JAK2 (O60674 whole entry): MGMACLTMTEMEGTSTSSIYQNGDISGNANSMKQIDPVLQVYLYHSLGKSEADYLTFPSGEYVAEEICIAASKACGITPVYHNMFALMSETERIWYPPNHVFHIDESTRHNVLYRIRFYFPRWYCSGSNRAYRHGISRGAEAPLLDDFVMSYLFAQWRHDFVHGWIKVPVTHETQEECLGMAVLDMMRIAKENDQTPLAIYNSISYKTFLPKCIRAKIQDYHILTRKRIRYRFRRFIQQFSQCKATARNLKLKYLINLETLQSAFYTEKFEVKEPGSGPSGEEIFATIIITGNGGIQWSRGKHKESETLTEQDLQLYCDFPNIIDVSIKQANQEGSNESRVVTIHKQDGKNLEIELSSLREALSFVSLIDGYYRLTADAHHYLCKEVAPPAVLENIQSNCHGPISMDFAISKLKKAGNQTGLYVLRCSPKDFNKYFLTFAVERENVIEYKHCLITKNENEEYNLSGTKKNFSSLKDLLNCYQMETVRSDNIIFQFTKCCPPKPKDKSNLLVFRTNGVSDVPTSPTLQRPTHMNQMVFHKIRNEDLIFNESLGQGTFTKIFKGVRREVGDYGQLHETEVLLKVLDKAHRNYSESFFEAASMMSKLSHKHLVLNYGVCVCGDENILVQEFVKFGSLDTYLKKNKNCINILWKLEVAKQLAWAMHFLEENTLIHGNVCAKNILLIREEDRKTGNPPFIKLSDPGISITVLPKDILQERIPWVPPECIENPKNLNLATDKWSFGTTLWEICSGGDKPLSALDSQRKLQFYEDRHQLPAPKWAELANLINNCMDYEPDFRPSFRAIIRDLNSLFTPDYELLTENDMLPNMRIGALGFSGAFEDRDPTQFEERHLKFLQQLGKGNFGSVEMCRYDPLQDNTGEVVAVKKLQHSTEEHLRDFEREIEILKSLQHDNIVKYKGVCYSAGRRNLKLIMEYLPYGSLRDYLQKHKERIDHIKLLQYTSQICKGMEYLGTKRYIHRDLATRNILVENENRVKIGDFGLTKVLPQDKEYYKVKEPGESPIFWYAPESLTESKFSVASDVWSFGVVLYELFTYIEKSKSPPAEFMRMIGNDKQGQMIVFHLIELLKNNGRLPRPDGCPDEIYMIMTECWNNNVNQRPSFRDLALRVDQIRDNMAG
Description: as §3, §4, §5, §6

SMILES | Caco Kp 10^−6 cm/sec (Caco-2 cell monolayers) | IC50 [1] [nM] | Tyk 2 (pKi) (Tyk2) | IC50 [2] [nM] | Ki (JAK3) [nM] | JAK3 (pKi)-JAK1 (pKi) (JAK3) | JAK 1 (pKi) (JAK1) | JAK 2 (pKi) (JAK2) | JAK 3 (pKi) (JAK3) | Ki (JAK2; read-out: JAK 2 (pKi) (converted)) [nM]
C=CC(=O)N1CC(COc2cc(-c3c(F)cc(O)cc3F)cn3cncc23)C1 [Example 7, 1-(3-(((6-(2,6-difluoro-4-hydroxyphenyl)imidazo[1,5-a]pyridin-8-yl)oxy)methyl)azetidin-1-yl)prop-2-en-1-one] | B (B represents a value between 5×10^−6 and 10×10^−6 cm/sec) | 31.6 to 200 | E (E represents a pKi value of 7 or below (Ki of 100 nM or above)) | < 1000 | 0.1 to 1 | A (A represents a value of 3 or above) | E (E represents a pKi value of 7 or below (Ki of 100 nM or above)) | E (E represents a pKi value of 7 or below (Ki of 100 nM or above)) | – | –
C=CC(=O)N1CC(COc2cc(-c3ccc(O)c(F)c3F)cn3cncc23)C1 [Example 8, 1-(3-(((6-(2,3-difluoro-4-hydroxyphenyl)imidazo[1,5-a]pyridin-8-yl)oxy)methyl)azetidin-1-yl)prop-2-en-1-one] | B (B represents a value between 5×10^−6 and 10×10^−6 cm/sec) | 31.6 to 200 | E (E represents a pKi value of 7 or below (Ki of 100 nM or above)) | < 1000 | – | A (A represents a value of 3 or above) | E (E represents a pKi value of 7 or below (Ki of 100 nM or above)) | E (E represents a pKi value of 7 or below (Ki of 100 nM or above)) | A (A represents a pKi value≥10 (Ki≤0.1 nM)) | –
C=CC(=O)N1CC(COc2cc(-c3cc(Cl)c(O)c(OC)c3)cn3cncc23)C1 [Example 9, 1-(3-(((6-(3-chloro-4-hydroxy-5-methoxyphenyl)imidazo[1,5-a]pyridin-8-yl)oxy)methyl)azetidin-1-yl)prop-2-en-1-one] | A (A represents a value below 5×10^−6 cm/sec) | 31.6 to 200 | E (E represents a pKi value of 7 or below (Ki of 100 nM or above)) | < 1000 | 0.1 to 1 | A (A represents a value of 3 or above) | E (E represents a pKi value of 7 or below (Ki of 100 nM or above)) | E (E represents a pKi value of 7 or below (Ki of 100 nM or above)) | – | –
C=CC(=O)N1CC(COc2cc(-c3ccc(O)cc3)cn3cncc23)C1 [Example 11, 1-(3-(((6-(4-hydroxyphenyl)imidazo[1,5-a]pyridin-8-yl)oxy)methyl)azetidin-1-yl)prop-2-en-1-one] | A (A represents a value below 5×10^−6 cm/sec) | 31.6 to 200 | E (E represents a pKi value of 7 or below (Ki of 100 nM or above)) | < 1000 | 0.1 to 1 | A (A represents a value of 3 or above) | E (E represents a pKi value of 7 or below (Ki of 100 nM or above)) | E (E represents a pKi value of 7 or below (Ki of 100 nM or above)) | – | –
C=CC(=O)N1CCC(Oc2cc(-c3ccc(O)cc3)cn3cncc23)C(F)(F)C1 (stereo not drawn) [Example 14, 1-(3,3-difluoro-4-((6-(4-hydroxyphenyl)imidazo[1,5-a]pyridin-8-yl)oxy)piperidin-1-yl)prop-2-en-1-one] | B (B represents a value between 5×10^−6 and 10×10^−6 cm/sec) | ≤ 31.6 | E (E represents a pKi value of 7 or below (Ki of 100 nM or above)) | – | – | A (A represents a value of 3 or above) | E (E represents a pKi value of 7 or below (Ki of 100 nM or above)) | – | A (A represents a pKi value≥10 (Ki≤0.1 nM)) | 10 to 100
C=CC(=O)N1CC(COc2cc(-c3ccc(O)c(F)c3)cn3cncc23)C1 [Example 20] | A (A represents a value below 5×10^−6 cm/sec) | 31.6 to 200 | E (E represents a pKi value of 7 or below (Ki of 100 nM or above)) | < 1000 | 0.1 to 1 | A (A represents a value of 3 or above) | E (E represents a pKi value of 7 or below (Ki of 100 nM or above)) | E (E represents a pKi value of 7 or below (Ki of 100 nM or above)) | – | –
C=CC(=O)N1CC(COc2cc(-c3ccc(O)cc3CC)cn3cncc23)C1 [Example 21] | B (B represents a value between 5×10^−6 and 10×10^−6 cm/sec) | 31.6 to 200 | E (E represents a pKi value of 7 or below (Ki of 100 nM or above)) | – | 0.1 to 1 | A (A represents a value of 3 or above) | E (E represents a pKi value of 7 or below (Ki of 100 nM or above)) | E (E represents a pKi value of 7 or below (Ki of 100 nM or above)) | – | –
